“Also recorded” adds a separate entry of the source. Read-outs that look alike come from different tables or passages of the source.
Legend:
Type in all cases: cell-based, human
[1] = tested on: HMEC organoids in microcontainers; assay: Inhibitor treatment of contractile mammary organoids, contractions counted by time-lapse microscopy; conditions: for effect on contractions (FIG. 5H legend): 2 μM
Description: Contraction temporal analysis: Organoid contractions were quantified either by hand or by brightness change analysis, as indicated. For brightness change analysis, time-lapse movies were taken, and the time-derivative of the whole-field image brightness was calculated. Local maxima in the time-derivative were interpreted as contractions and spot-checked by eye.
Contractile function implies the presence of contractility-associated structural proteins. […] The association between contractility and ASMA expression was tested with inhibitor experiments. Contractile organoids were treated with either latrunculin B or jasplakinolide, inhibitors of cytoskeleton dynamics that either promote or inhibit actin polymerization, […]. […] Next, organoids were treated with ML-7, an inhibitor of the smooth muscle myosin light-chain kinase that interacts with ASMA.

[2] = tested on: estrogen receptor; assay: Attempted induction of estrogen receptor expression, immunofluorescence; conditions: 25 μM RepSox and 10 μM SB431542 together; drugs maintained, withdrawn, or cells mixed 1:10 with undrugged cells
[3] = tested on: HMEC organoids in microcontainers; assay: Interventions to alter organoid contraction kinetics (withdrawing media factors, adding matrix)
[4] = tested on: HMEC organoids in microcontainers; assay: Prolactin treatment of organoids, luminal functional differentiation (morphology, Sudan Black)

Molecule: O=S(=O)(c1cccc2c(I)cccc12)N1CCCNCC1 [ML-7]
- inhibition of contractions ([1]; 2 μM ML-7, FIG. 5I): Partial inhibition
- effect on contractions (FIG. 5I legend) ([1]; n=59 organoids): prevented contractions

Molecule: C/C1=C\[C@H](C)C[C@H](C)OC(=O)C[C@H](c2ccc(O)cc2)NC(=O)[C@@H](Cc2c(Br)[nH]c3ccccc23)N(C)C(=O)[C@H](C)NC(=O)[C@@H](C)C1 [jasplakinolide, Jasplakinolide]
- effect on contractions (FIG. 5H legend) [1]: prevented contractions

Molecule: Cc1cccc(-c2[nH]ncc2-c2ccc3ncccc3n2)n1 [RepSox]
- estrogen receptor expression by immunofluorescence [2]: not detected

Molecule: C/C1=C/C(=O)O[C@@H]2C[C@@H](CC[C@H](C)/C=C\CC1)O[C@@](O)([C@@H]1CSC(=O)N1)C2 [latrunculin B, Latrunculin B]
- effect on contractions (FIG. 5H legend) [1]: prevented contractions

Molecule: CC[C@H](C)[C@@H]1NC(=O)[C@H](Cc2ccc(O)cc2)NC(=O)[C@@H](N)CSSC[C@@H](C(=O)N2CCC[C@H]2C(=O)N[C@@H](CC(C)C)C(=O)NCC(N)=O)NC(=O)[C@H](CC(N)=O)NC(=O)[C@H](CCC(N)=O)NC1=O [oxytocin]
- effect on contraction kinetics ([3]; withdrawn from the media): no effect

Molecule: collagen I: matrix protein added to change the microenvironment
- effect on contraction kinetics ([3]; added at 0 to 2 mg/mL): no effect

Molecule: CC(C)NCC(O)c1ccc(O)c(O)c1 (stereo not drawn) [isoproterenol]
- effect on contraction kinetics ([3]; withdrawn from the media): no effect

Molecule: NC(=O)c1ccc(-c2nc(-c3ccc4c(c3)OCO4)c(-c3ccccn3)[nH]2)cc1 [SB431542]
- estrogen receptor expression by immunofluorescence [2]: not detected

Molecule: cholera toxin
- effect on contraction kinetics [3]: no effect

B1: prolactin: hormone treatment tested for evidence of lactation (protein, UniProt P01236 29-227, looked up)
Prolactin: LPICPGGAARCQVTLRDLFDRAVVLSHYIHNLSSEMFSEFDKRYTHGRGFITKAINSCHTSSLATPEDKEQAQQMNQKDFLSLIVSILRSWNEPLYHLVTEVRGMQEAPEAILSKAVEIEEQTKRLLEGMELIVSQVHPETKENEIYPVWSGLPSLQMADEESRLSAYYNLLHCLRRDSHKIDNYLKLLKCRIIHNNNC
- organoid morphology with prolactin treatment ([4]; presence or absence of prolactin, FIG. 6A): no obvious differences; also recorded: no morphological changes
- sudanophilia (Sudan Black, marker of lipophilic secretions) ([4]; prolactin treatment, FIG. 6B): only evident in a single organoid

From patent US20230212510A1, “METHODS FOR ORGANOIDS PRODUCTION” (CITY OF HOPE, priority 2020, published 2023)
